Test results: a melting point compilation (Tetko et al.; mined from patent text by program, amines drawn as free bases though some values may be those of a salt)

Compared with CC(C)(C)[Si](C)(C)CCCSCCNC(=O)n1cc(F)c(=O)[nH]c1=O, CNC(=O)N(C)c1cc(C(C)(C)C)on1 is higher in melting point: 123 to 124 °C for the first, 150 to 151 °C for the second.

First: C#CCCCOc1c(C)cc(C#N)cc1C
Second: CCc1nc(C(=O)c2c(C)cc(C)cc2C)c(C=O)n1C(CC)CC
The melting point of the first is lower: 48 to 49 °C for the first, 119 to 120 °C for the second.

First: Nc1ccc(CCNC(=O)Nc2ccc(Nc3ccccc3)cc2)cc1
Second: CCCCNC(=O)Oc1ccc(Oc2ccccc2)cc1Br
The melting point of the first is higher: over 260 °C for the first, 57 to 60 °C for the second.

Compared with CC12CCC3c4cccc(N)c4CCC3C1CCC2O (stereo unspecified), O=C(CO)c1ccc(C2CCCCC2)cc1 is lower in melting point: 189 to 192 °C for the first, 104 to 106 °C for the second.

First: COC(=O)c1c(-c2ccc(C)cc2)ccnc1O
Second: Cn1cc(-c2cc3cccnc3[nH]2)c2ccc(C(=O)O)cc21
The melting point of the first is lower: 222 to 224 °C for the first, 359 to 361 °C for the second.

First: COC(=O)c1cc2c3ccccc3n(-c3ccccc3)c2s1
Second: CC(C)Oc1cccc(-n2c(=S)[nH]c3ccccc3c2=O)c1
The melting point of the first is lower: 147 to 149 °C for the first, 288 to 290 °C for the second.

First: CC(=O)NC[C@H]1CN(c2ccc(N3CCC(c4nnn[nH]4)CC3)c(F)c2)C(=O)O1
Second: Cc1cc(C)c2nc(NC3CCN(CCO)CC3)n(Cc3nc(C)ccc3O)c2c1
The melting point of the first is lower: 148 to 150 °C for the first, 177 °C for the second.

Compared with CC(Oc1ccc(OC(F)(F)F)cc1)c1ccnc2ncnn12 (stereo unspecified), CCSC(=O)Cc1cc(Oc2ccc(C(F)(F)F)cc2Cl)ccc1[N+](=O)[O-] is lower in melting point: 91 to 93 °C for the first, 82.5 to 84.2 °C for the second.

First: Cc1cc(C)cc(C(=O)N2CCC(N3CCC(NC(=O)c4ccccc4N)CC3)CC2Cc2ccccc2)c1 (stereo unspecified)
Second: CCOC(=O)C1=C(C)NC(CN2C(=O)c3ccccc3C2=O)=C(C(=O)OCC)C1c1ccccc1 (stereo unspecified)
The melting point of the first is lower: 121 °C for the first, 169 to 170 °C for the second.

First: COCC(=O)Nc1ccc2c(c1)CCC2
Second: COC(=O)c1ccc(O)c(OC2CCCC2)c1
The melting point of the first is higher: 104 to 105 °C for the first, 73 to 75 °C for the second.

First: O=C(CBr)c1ccc(Cl)cc1OCc1ccccc1
Second: CCS(=O)(=O)N(C)[C@@H]1c2cc(OCc3ccccc3)ccc2OC(C)(C)[C@H]1O
The melting point of the first is lower: 75 to 78 °C for the first, 165 to 167 °C for the second.

First: O=C(O)CC1CCC(N2CCN(c3ccncc3)CC2)CC1 (stereo unspecified)
Second: O=C(C1CCC1)N1CCC2(CC1)Cc1ccccc1O2
The melting point of the first is higher: 225 to 227 °C for the first, 91 to 93 °C for the second.

First: COC1Cc2nc3cc(N)ccc3n2C1 (stereo unspecified)
Second: CC(=O)OC1Cc2ccc([N+](=O)[O-])cc2C1 (stereo unspecified)
The melting point of the first is higher: 140 to 142 °C for the first, 84 to 85 °C for the second.

First: CN1CCN(c2ccc(S(=O)(=O)Oc3ccccc3)c(Cl)c2[N+](=O)[O-])CC1
Second: CCc1ccccc1-c1nc(-c2cccc(OC)c2)n[nH]1
The melting point of the first is higher: 94 to 95 °C for the first, 72 to 75 °C for the second.

First: Cc1c(SCCN2CCc3ccccc3C2)ccnc1CSc1nc2ccccc2[nH]1
Second: CN1C(=O)C2=C(c3ccc(Br)cc3)OC(=O)C2=C1c1ccccc1
The melting point of the first is lower: 90 to 94 °C for the first, 215 to 216 °C for the second.

Compared with Cn1ccn(Cc2ccc([N+](=O)[O-])cc2)c1=S, CC(C)=C(C(=O)O)c1ccc(Cl)cc1 is lower in melting point: 162 to 168 °C for the first, 144 to 145 °C for the second.

First: CC(C)Cn1c(=O)n(C)c(=O)c2c(SC(C)C)c(C(=O)c3nc4ccccc4n3C)sc21
Second: COC(=O)CCc1cc2cc(Cl)ccc2n1S(=O)(=O)c1ccc2nc(N)sc2c1
The melting point of the first is lower: 166 to 169 °C for the first, 217 to 222 °C for the second.

Compared with CC1(C)CC(=O)c2c(C3CCC3)sc(-c3nccs3)c2C1, O=CC(=Cc1ccc(Cl)cc1Cl)C1CCOCC1 is lower in melting point: 126 to 128 °C for the first, 82 to 85 °C for the second.

First: CCn1nnc(C(C=O)=C(c2ccc(F)cc2)c2ccc(F)cc2)n1
Second: CS(=O)(=O)c1ccc(-c2nn3c4c(oc3c2-c2ccc(F)cc2)COCC4)cc1
The melting point of the first is lower: 138 to 139 °C for the first, 200 to 201 °C for the second.

First: COc1cc(C=C2NC(=O)NC2=O)cc(OC)c1O
Second: O=C(O)Cc1cc(=O)oc2cc(O)ccc12
The melting point of the first is higher: 296 to 297 °C for the first, 210 °C for the second.

Compared with Cc1cc(=O)n2nc(C)n(N)c2n1, CSc1ncc(C#N)c(NC(C)C)n1 is lower in melting point: 287 to 289 °C for the first, 121 to 122 °C for the second.

Compared with COc1ccc(C(=O)CI)cc1, COC(=O)c1cc(C(C)(C)C#N)cc(C(C)(C)C#N)c1 is higher in melting point: 63 to 65 °C for the first, 83 to 85 °C for the second.

First: CC(C)(C)OC(=O)COC(=O)CCc1c(OCC(=O)OC(C)(C)C)ccc2ccc(OCC(=O)OC(C)(C)C)cc12
Second: CCOC(=O)/C=C/c1nc(-c2ccccc2)oc1COc1ccc(OCc2nc(-c3ccccc3)oc2C)cc1
The melting point of the first is higher: 118 °C for the first, 107 to 108 °C for the second.

First: CCCCNC(=O)NS(=O)(=O)c1cscc1C
Second: O=S(=O)(Nc1cccnc1Cl)C(F)(F)F
The melting point of the first is higher: 126 to 131 °C for the first, 120 to 122 °C for the second.

First: CC(Cn1ccnc1)OCC(O)(P(=O)(O)O)P(=O)(O)O (stereo unspecified)
Second: CCOC(=O)CCCN1C(=O)N(c2ccc(C#N)c(C(F)(F)F)c2)C(=O)C12CCOCC2
The melting point of the first is higher: 135 to 140 °C for the first, 129 to 130 °C for the second.

CCc1c(N)c(Cl)cc(Cc2cc(Cl)c(N)c(CC)c2Cl)c1Cl gave a melting point of 146 to 148 °C.
